Reference: ChEMBL document CHEMBL4270663, “6-Benzhydryl-4-amino-quinolin-2-ones as Potent Cannabinoid Type 1 (CB1) Receptor Inverse Agonists and Chemical Modifications for Peripheral Selectivity” (J Med Chem, 2018)
Values belong to the compound of their own block, whether it stands above or below them. Active and inactive are the calls of the source. The calls are words filed in the database; no cut-off is given here.

Columns and labels:
Cannabinoid receptor 1 = Cannabinoid receptor 1 (Homo sapiens, UniProt P21554); test: Inverse agonist activity at human CB1 receptor expressed in HEK293 cells assessed as inhibition of forskolin-induced cAMP accumulation after 30 mins by HTRF assay; type: functional, cell-based
Cannabinoid receptor 1, sequence (P21554 whole entry): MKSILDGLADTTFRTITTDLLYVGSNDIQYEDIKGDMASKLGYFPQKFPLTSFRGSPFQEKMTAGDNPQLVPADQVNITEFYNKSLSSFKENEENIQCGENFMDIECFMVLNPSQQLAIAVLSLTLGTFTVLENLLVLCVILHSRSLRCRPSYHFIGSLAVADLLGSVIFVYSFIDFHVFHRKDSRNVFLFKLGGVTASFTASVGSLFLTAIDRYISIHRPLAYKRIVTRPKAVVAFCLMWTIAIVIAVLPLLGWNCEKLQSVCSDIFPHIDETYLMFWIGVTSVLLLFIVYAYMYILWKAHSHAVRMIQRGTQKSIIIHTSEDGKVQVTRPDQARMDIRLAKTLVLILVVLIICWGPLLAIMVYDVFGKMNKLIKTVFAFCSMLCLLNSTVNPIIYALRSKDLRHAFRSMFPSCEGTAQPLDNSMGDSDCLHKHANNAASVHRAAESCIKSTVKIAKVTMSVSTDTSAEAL

[1] = Drug uptake in plasma of diet-induced obese C57BL/6J mouse model at 10 mg/kg administered as daily dose measured at 2 hrs post last dose on day 5; type: ADME, organism-based
[2] = Drug uptake in brain of diet-induced obese C57BL/6J mouse model at 10 mg/kg administered as daily dose measured at 2 hrs post last dose on day 5; type: ADME, organism-based; conditions: in vivo
[3] = Ratio of drug level in brain to plasma of diet-induced obese C57BL/6J mouse model at 10 mg/kg administered as daily dose measured at 2 hrs post last dose on day 5; type: ADME, organism-based; conditions: read-out: BPR
Mus musculus [4] = test: Antiobesity activity in diet induced obese C57BL/6J mouse model assessed as decrease in food intake at 10 mg/kg administered as daily dose measured every day for 5 days; type: functional, organism-based
Mus musculus [5] = test: Antiobesity activity in diet induced obese C57BL/6J mouse model assessed as decrease in body weight at 10 mg/kg administered as daily dose measured every day for 5 days; type: functional, organism-based
Mus musculus [6] = test: In vivo receptor occupancy at CB1 receptor in brain of diet induced obese C57BL/6J mouse model at 10 mg/kg, po administered as daily dose for 5 days measured 10 mins post last dose in presence of [3H]-CP-55940 relative to control; type: functional
Cannabinoid receptor 2 = Cannabinoid receptor 2 (Homo sapiens, UniProt P34972); test: Inverse agonist activity at human CB2 receptor expressed in HEK293 cells assessed as […] cAMP accumulation after 30 mins by HTRF assay; type: functional, cell-based
Cannabinoid receptor 2, sequence (P34972 whole entry): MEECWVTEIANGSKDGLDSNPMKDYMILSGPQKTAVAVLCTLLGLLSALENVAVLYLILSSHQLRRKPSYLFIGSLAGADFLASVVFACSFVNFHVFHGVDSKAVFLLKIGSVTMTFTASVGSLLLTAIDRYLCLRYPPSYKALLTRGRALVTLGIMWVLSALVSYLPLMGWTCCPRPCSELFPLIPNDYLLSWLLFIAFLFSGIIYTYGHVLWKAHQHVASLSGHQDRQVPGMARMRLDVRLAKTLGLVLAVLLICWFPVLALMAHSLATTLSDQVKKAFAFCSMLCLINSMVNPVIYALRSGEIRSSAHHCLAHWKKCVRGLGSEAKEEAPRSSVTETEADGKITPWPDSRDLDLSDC

[7] = Metabolic stability in human liver microsomes assessed as parent compound remaining at 1 uM after 10 mins in presence of NADPH; type: ADME, microsome; conditions: read-out: Stability
[8] = Metabolic stability in rat liver microsomes assessed as parent compound remaining at 1 uM after 10 mins in presence of NADPH; type: ADME, microsome; conditions: read-out: Stability
[9] = Metabolic stability in mouse liver microsomes assessed as parent compound remaining at 1 uM after 10 mins in presence of NADPH; type: ADME, microsome; conditions: read-out: Stability
Cytochrome P450 1A2 = biological target: T1, Cytochrome P450 1A2 (Homo sapiens, UniProt P05177); test: Inhibition of CYP1A2 in human liver microsomes using phenacetin as substrate after 10 to 30 mins by LC/MS analysis; type: ADME
T1 sequence (P05177 whole entry): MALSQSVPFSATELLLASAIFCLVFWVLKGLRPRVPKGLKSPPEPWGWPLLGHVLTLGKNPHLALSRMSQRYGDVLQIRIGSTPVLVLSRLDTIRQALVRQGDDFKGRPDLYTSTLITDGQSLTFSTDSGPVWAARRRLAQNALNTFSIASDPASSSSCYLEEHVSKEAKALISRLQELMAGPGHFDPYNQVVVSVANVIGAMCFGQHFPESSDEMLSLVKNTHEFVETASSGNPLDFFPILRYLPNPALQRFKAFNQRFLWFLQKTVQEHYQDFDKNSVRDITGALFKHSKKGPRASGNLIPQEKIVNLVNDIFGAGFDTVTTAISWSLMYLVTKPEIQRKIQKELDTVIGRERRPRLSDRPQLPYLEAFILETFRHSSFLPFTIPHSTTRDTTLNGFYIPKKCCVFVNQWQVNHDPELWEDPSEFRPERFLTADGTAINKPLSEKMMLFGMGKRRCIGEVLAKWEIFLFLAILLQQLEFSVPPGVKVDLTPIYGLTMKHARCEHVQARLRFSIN

Cytochrome P450 3A4 = Cytochrome P450 3A4 (Homo sapiens, UniProt P08684); test: Inhibition of CYP3A4 in human liver microsomes using midazolam/testosterone as substrate after 10 to 30 mins by LC/MS analysis; type: ADME
Cytochrome P450 3A4, sequence (P08684 whole entry): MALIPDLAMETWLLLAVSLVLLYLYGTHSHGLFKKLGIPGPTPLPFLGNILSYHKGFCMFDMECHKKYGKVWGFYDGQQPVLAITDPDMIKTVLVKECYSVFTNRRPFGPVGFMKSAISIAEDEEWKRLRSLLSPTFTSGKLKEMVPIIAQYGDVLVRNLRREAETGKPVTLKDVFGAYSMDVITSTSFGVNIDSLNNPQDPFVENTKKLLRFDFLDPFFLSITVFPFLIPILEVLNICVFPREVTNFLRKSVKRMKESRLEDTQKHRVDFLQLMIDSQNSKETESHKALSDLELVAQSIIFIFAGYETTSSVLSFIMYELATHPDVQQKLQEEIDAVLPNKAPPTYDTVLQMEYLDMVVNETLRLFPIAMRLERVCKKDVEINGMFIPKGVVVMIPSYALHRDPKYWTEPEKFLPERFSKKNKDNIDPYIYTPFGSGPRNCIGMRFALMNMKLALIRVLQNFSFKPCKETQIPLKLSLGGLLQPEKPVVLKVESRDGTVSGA

Cytochrome P450 2C9 = Cytochrome P450 2C9 (Homo sapiens, UniProt P11712); test: Inhibition of CYP2C9 in human liver microsomes using tolbutamide as substrate after 10 to 30 mins by LC/MS analysis; type: ADME
Cytochrome P450 2C9, sequence (P11712 whole entry): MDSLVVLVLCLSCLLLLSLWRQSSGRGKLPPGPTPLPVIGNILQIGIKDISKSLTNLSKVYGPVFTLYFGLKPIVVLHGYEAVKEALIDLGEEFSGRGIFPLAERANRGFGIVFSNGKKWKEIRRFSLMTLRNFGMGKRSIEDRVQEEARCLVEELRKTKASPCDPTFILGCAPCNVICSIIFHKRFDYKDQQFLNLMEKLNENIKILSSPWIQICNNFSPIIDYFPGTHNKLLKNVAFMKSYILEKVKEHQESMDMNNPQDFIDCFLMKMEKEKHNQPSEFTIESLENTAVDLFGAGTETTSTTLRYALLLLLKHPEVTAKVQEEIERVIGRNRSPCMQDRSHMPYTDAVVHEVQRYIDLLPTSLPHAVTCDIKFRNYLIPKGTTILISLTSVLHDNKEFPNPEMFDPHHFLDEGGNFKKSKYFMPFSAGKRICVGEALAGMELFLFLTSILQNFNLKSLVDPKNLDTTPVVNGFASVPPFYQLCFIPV

Cytochrome P450 2D6 = Cytochrome P450 2D6 (Homo sapiens, UniProt P10635); test: Inhibition of CYP2D6 in human liver microsomes using dextromethorphan as substrate after 10 to 30 mins by LC/MS analysis; type: ADME
Cytochrome P450 2D6, sequence (P10635 whole entry): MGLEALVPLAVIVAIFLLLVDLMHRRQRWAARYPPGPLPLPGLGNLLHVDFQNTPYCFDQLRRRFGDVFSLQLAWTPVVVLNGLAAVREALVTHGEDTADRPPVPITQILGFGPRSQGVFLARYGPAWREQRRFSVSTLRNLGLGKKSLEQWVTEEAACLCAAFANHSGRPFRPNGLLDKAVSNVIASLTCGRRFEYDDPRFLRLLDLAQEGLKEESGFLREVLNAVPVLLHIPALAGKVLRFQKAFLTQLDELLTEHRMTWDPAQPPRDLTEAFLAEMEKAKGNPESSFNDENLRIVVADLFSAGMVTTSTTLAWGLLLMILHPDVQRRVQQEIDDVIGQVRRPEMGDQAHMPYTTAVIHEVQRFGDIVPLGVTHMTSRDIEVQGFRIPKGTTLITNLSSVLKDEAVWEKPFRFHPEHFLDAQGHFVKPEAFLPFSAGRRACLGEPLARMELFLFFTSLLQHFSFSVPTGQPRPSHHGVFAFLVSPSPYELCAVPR

Cytochrome P450 2C19 = Cytochrome P450 2C19 (Homo sapiens, UniProt P33261); test: Inhibition of CYP2C19 in human liver microsomes using (S)-mephenytoin as substrate after 10 to 30 mins by LC/MS analysis; type: ADME
Cytochrome P450 2C19, sequence (P33261 whole entry): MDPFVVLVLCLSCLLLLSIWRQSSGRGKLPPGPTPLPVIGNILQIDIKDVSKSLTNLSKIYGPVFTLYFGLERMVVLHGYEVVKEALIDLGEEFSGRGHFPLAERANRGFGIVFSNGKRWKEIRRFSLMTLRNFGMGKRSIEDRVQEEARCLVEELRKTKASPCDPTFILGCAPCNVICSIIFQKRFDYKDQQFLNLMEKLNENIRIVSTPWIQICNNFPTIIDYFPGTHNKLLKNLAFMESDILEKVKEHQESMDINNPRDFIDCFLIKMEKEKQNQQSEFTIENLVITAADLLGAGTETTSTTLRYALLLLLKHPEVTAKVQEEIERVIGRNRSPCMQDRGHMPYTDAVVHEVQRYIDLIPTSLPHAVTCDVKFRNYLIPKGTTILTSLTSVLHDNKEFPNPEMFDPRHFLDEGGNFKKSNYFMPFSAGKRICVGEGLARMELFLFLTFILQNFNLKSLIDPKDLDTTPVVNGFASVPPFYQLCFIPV

[10] = Drug uptake in C57BL/6J mouse plasma at 20 mg/kg, po measured after 1 hr; type: ADME, organism-based
[11] = Drug uptake in C57BL/6J mouse plasma at 20 mg/kg, po measured after 4 hrs; type: ADME, organism-based
[12] = Drug uptake in C57BL/6J mouse brain at 20 mg/kg, po measured after 1 hr; type: ADME, organism-based; conditions: in vivo, BLD = below limit of detection
[13] = Drug uptake in C57BL/6J mouse brain at 20 mg/kg, po measured after 4 hrs; type: ADME, organism-based; conditions: in vivo
[14] = Ratio of drug level in C57BL/6J mouse brain to plasma at 20 mg/kg, po measured after 4 hrs; type: ADME, organism-based; conditions: read-out: BPR

Compound: Cc1c(C(=O)NN2CCCCC2)nn(-c2ccc(Cl)cc2Cl)c1-c1ccc(Cl)cc1 [RIMONABANT]
concentration at 2 h [1]: 1500 nM
Drug uptake [2]: 1.46 nmol/g
Kp at 2 h [3]: 0.98
Activity (Mus musculus [4]): Active
Activity (Mus musculus [5]): Active
Occ (Mus musculus [6]): 81.7%

Compound: O=C(O)COc1cc(C(c2ccc(Cl)cc2)c2ccc(Cl)cc2)cc2c(NC3CCN(S(=O)(=O)C(F)(F)F)CC3)ccnc12
EC50 (Cannabinoid receptor 2): > 10000 nM

Compound: O=C(Nc1cc(=O)[nH]c2ccc(C(c3ccc(Cl)cc3)n3ccnc3)cc12)c1ccccc1 (stereo not given)
EC50 (Cannabinoid receptor 1): > 10000 nM

Compound: O=c1cc(NC2CCN(c3ncccn3)CC2)c2cc(C(c3ccc(Cl)cc3)c3ccc(Cl)cc3)ccc2[nH]1
remaining at 10 min, 1 µM [7]: 43%
remaining at 10 min, 1 µM [8]: 69%
remaining at 10 min, 1 µM [9]: 57%
concentration at 1 h [10]: 4160 nM
concentration at 4 h [11]: 2890 nM
Drug uptake [12]: Bld
Drug uptake [13]: 0.107 nmol/g
Kp at 4 h [14]: 0.037

Compound: O=c1cc(OCc2ccccc2)c2cc(C(c3ccc(Cl)cc3)n3ccnc3)ccc2[nH]1 (stereo not given)
EC50 (Cannabinoid receptor 1): 1150 nM

Compound: O=c1cc([C@@H]2C[C@@H]2c2ccccc2)c2cc(C(c3ccc(Cl)cc3)n3ccnc3)ccc2[nH]1 (stereo not given in full)
EC50 (Cannabinoid receptor 1): 66 nM

Compound: O=c1cc(Cc2ccc(OC(F)(F)F)cc2)c2cc(C(c3ccc(Cl)cc3)n3ccnc3)ccc2[nH]1 (stereo not given)
EC50 (Cannabinoid receptor 1): 113 nM

Compound: O=c1cc(/C=C/c2ccc(C(F)(F)F)cc2)c2cc(C(c3ccc(Cl)cc3)c3nccs3)ccc2[nH]1 (stereo not given)
IC50 (Cytochrome P450 1A2): > 10000 nM
IC50 (Cytochrome P450 3A4): > 10000 nM
IC50 (Cytochrome P450 2C9): > 10000 nM
IC50 (Cytochrome P450 2D6): > 10000 nM
IC50 (Cytochrome P450 2C19): > 10000 nM

Compound: CCOC(=O)CC(=O)N1CCC(Nc2cc(=O)[nH]c3ccc(C(c4ccc(Cl)cc4)c4ccc(Cl)cc4)cc23)CC1
EC50 (Cannabinoid receptor 1): 13.5 nM

Compound: COCCOCCOCCOCCOCCOCCOCCOc1cc(NC2CCN(S(=O)(=O)C(F)(F)F)CC2)c2cc(C(c3ccc(Cl)cc3)c3ccc(Cl)cc3)ccc2n1
EC50 (Cannabinoid receptor 1): 457 nM
EC50 (Cannabinoid receptor 2): 5900 nM

Compound: COCCOc1cc(NC2CCN(S(=O)(=O)C(F)(F)F)CC2)c2cc(C(c3ccc(Cl)cc3)c3ccc(Cl)cc3)ccc2n1
EC50 (Cannabinoid receptor 1): 22 nM

Compound: O=c1cc(CCc2ccccc2)c2cc(C(c3ccc(Cl)cc3)n3ccnc3)ccc2[nH]1 (stereo not given)
EC50 (Cannabinoid receptor 1): > 10000 nM

Compound: O=c1cc(/C=C/c2ccccc2)c2cc(C(c3ccc(Cl)cc3)n3ccnc3)ccc2[nH]1 (stereo not given)
EC50 (Cannabinoid receptor 1): 165 nM

Compound: O=C(O)c1cccc(S(=O)(=O)N2CCC(Nc3cc(=O)[nH]c4ccc(C(c5ccc(Cl)cc5)c5ccc(Cl)cc5)cc34)CC2)c1
EC50 (Cannabinoid receptor 2): 8690 nM

Compound: O=c1cc(/C=C/c2ccccc2)c2cc(C(O)c3ccc(Cl)cc3)ccc2[nH]1 (stereo not given)
EC50 (Cannabinoid receptor 1): > 10000 nM

Compound: O=C(O)CCCCCOc1cc(NC2CCN(S(=O)(=O)C(F)(F)F)CC2)c2cc(C(c3ccc(Cl)cc3)c3ccc(Cl)cc3)ccc2n1
EC50 (Cannabinoid receptor 2): 61 nM

Other lines, results leading:

EC50 (Cannabinoid receptor 1): 260 nM
Compound: O=c1cc(NC2CCN(S(=O)(=O)C(F)(F)F)CC2)c2cc(Cc3ccc(Cl)cc3)ccc2[nH]1

EC50 (Cannabinoid receptor 2): > 10000 nM
Compound: CS(=O)(=O)N1CCC(Nc2cc(=O)[nH]c3ccc(C(c4ccc(Cl)cc4)c4ccc(Cl)cc4)cc23)CC1

remaining at 10 min, 1 µM [7]: 62.2%
remaining at 10 min, 1 µM [8]: 60.1%
remaining at 10 min, 1 µM [9]: 47.8%
IC50 (Cytochrome P450 1A2): > 10000 nM
IC50 (Cytochrome P450 3A4): > 10000 nM
IC50 (Cytochrome P450 2C9): > 10000 nM
IC50 (Cytochrome P450 2D6): > 10000 nM
IC50 (Cytochrome P450 2C19): 8000 nM
Compound: O=c1cc(NC2CCN(S(=O)(=O)C(F)(F)F)CC2)c2cc(C(c3ccc(Cl)cc3)c3nccs3)ccc2[nH]1 (stereo not given)

EC50 (Cannabinoid receptor 1): 399 nM
Compound: O=S(=O)(N1CCC(Nc2ccnc3c(O)cc(C(c4ccc(Cl)cc4)c4ccc(Cl)cc4)cc23)CC1)C(F)(F)F

EC50 (Cannabinoid receptor 1): 8.4 nM
Compound: COc1ccc(C(c2ccc(Cl)cc2)c2ccc3[nH]c(=O)cc(NC4CCN(S(=O)(=O)C(F)(F)F)CC4)c3c2)cc1 (stereo not given)

remaining at 10 min, 1 µM [7]: 20.4%
remaining at 10 min, 1 µM [8]: 27.9%
remaining at 10 min, 1 µM [9]: 19.1%
Compound: O=c1cc(N[C@@H]2CCN(S(=O)(=O)C(F)(F)F)C2)c2cc(C(c3ccc(Cl)cc3)c3nccs3)ccc2[nH]1 (stereo not given in full)

EC50 (Cannabinoid receptor 1): 5 nM
Compound: O=c1cc(NC2CCN(S(=O)(=O)C(F)(F)F)CC2)c2cc(C(c3ccc(Cl)cc3)n3ccnc3)ccc2[nH]1 (stereo not given)

EC50 (Cannabinoid receptor 2): 61 nM
Compound: COCCCc1cc(C(c2ccc(Cl)cc2)c2ccc(Cl)cc2)cc2c(NC3CCN(S(=O)(=O)C(F)(F)F)CC3)cc(=O)[nH]c12
